The assay has as its system β-catenin/TCF target genes. The assay is described as follows: Expression of Wnt/β-catenin and Notch pathway genes (immunoblot, qPCR). It is filed as cell-based, human. Conditions: 24 hr, 100 nM. The protocol: SDS-PAGE gel electrophoresis was performed using NuPAGE 4-12% Bis-Tris gels (Invitrogen) and transferred to PVDF membranes by semi-dry transfer using trans-blot transfer medium (Biorad). Membranes were blocked in Odyssey blocking buffer (LI-COR Biosciences) and incubated overnight at 4° C. with primary antibodies. After repeated washes with TBST (20 mM Tris, pH 7.6, 140 mM NaCl and 0.1% Tween-20) blots were incubated with the appropriate IRDye-conjugated secondary antibody (LI-COR Biosciences) and imaged using the LI-COR Odyssey. Bands were quantified using the Odyssey software (LI-COR Biosciences). The following antibodies were used in this study: CK1δ and Histone H4 (Abcam), CK1ε, c-Myc (9E10), Cyclin-D1 and β-actin (Santa Cruz), β-catenin (Cell Signaling), GAPDH (Millipore) and CD44 (R&D Systems).
Total RNA was obtained using the RNeasy Plus Mini Kit (Qiagen) and 1-2 μg of RNA was reverse transcribed with Superscript III First Strand Synthesis System (Life Technologies). Quantitative PCR was performed using the Power SYBR Green PCR Master Mix (Life Technologies) and the ABI7900HT Fast Real-Time PCR System. Intron-spanning gene-specific primer pairs were designed using the Primer3 algorithm and relative expression values for each gene of interest obtained by normalizing to GAPDH mRNA expression using the ^ΔΔCt method.

Each structure is given as a SMILES string.

As for `Fc1cccc(-n2cnc3c(NCc4nc5ccc(F)c(F)c5[nH]4)nc(N4CCOCC4)nc32)c1` [SR-3029], the “Notch pathway mRNAs (JAG1, NUMB, DTX)” value is “no effect”; the “expression of endogenous β-catenin/TCF target genes (CCND1, MYC, CD44, WNT3, WNT9A)” value is reported as “repressed”; the “expression of the endogenous Wnt antagonist SFRP1” value is listed as “marked increase”.
